Test results reported in PMC8037810, “L-Glutaminase Synthesis by Marine Halomonas meridiana Isolated from the Red Sea and Its Efficiency against Colorectal Cancer Cell Lines” (Molecules, 2021).

Tested on: T1, L-glutaminase
T1 construct: gene glsA; native enzyme purified from culture supernatant (ammonium sulfate, Sephadex G-200); about 57 kDa by SDS-PAGE
Test: Nesslerization of released ammonia; Lineweaver-Burk plot
Type: biochemical, Vreelandella aquamarina
Details: Tris buffer, 37 °C; pH of kinetic assay not stated (general assay pH 7, optimum pH 8.0); assayed L-glutamine 0.01-0.8 M, far above the printed Km

SMILES: NC(=O)CC[C@H](N)C(=O)O [L-glutamine]
- Km: 12.2 µM
